Starred links: 1 amine or outer side, 2 acyl side, 3 side chain; linkers in the order of their positions; H or OH if unused. Positions of bridges follow the written chain, without caps; N, C: chain ends. Non-standard residues stand in square brackets, D forms with d. Residues, ends and D or L forms follow the SMILES beside them. ξ: configuration not given here. X1 = O=C([C@@H]1CCN=C2C(N[*:1])=Cc3cc(O)c(O)cc3N21)[*:2]; ξOrn(N(OH)CHO) = NC(CCCN(O)C=O)C(=O)O; Suc = O=C(CCC(=O)[*:2])[*:1]; ξK = NCCCCC(N)C(=O)O; ξS = NC(CO)C(=O)O
What was measured:
[1] = test system: PA14 ΔfpvA ΔfpvB pHERD20T-fpvA; test: Checkerboard assay TS and siderophores, FpvA expressed; format: cell-based, Pseudomonas aeruginosa; conditions: 10:90 + 2% arabinose
Excerpt: (§1) We investigated this hypothesis by treating the ΔfpvA ΔfpvB mutant complemented with fpvA or fpvB with TS and pyoverdine-Fe^3+. If pyoverdine competes with TS for the same binding site in the transporter, a reduction in TS susceptibility would be expected, as competition would decrease entry of the antibiotic into the cell. TS susceptibility decreased >8-fold with increasing concentrations of pyoverdine-Fe^3+ when FpvA was expressed (see Fig. S2A in the supplemental material).
(§2) Supplementary file : FIG S2 Checkerboard assays of the PA14 ΔfpvA ΔfpvB strain complemented with fpvA and fpvB in trans with TS and siderophores. […] Checkerboards of the PA14 ΔfpvA ΔfpvB pHERD20T-fpvB strain with TS and enterobactin (G), ferrioxamine E (H), and arthrobactin (I). Results are averaged from three independent biological replicates. Cells in the assay were grown in 10:90 + 2% arabinose. Download FIG S2, EPS file, 2.2 MB.
Checkerboards (8 rows by 8 columns) were conducted as previously described in a 96-well plate (Nunc) ([13], [14]). TS at 75× the final concentration dissolved in DMSO was added in columns from bottom to top in increasing concentrations. Siderophores at 75× the final concentration dissolved in DSMO were added from in rows from left to right in increasing concentrations. Four columns were used for vehicle controls (DMSO) and sterile controls. […] Plates were sealed to prevent evaporation and incubated at 37°C overnight in a shaking incubator (200 rpm). The next day, the OD600 was determined with a plate reader (Thermo Scientific) and normalized to percent of growth of the vehicle control (DMSO) after subtracting the OD600 from blank media.

[2] = test system: PA14 ΔfpvA ΔfpvB pHERD20T-fpvB; test: Checkerboard assay TS and siderophores, FpvB expressed; format: cell-based, Pseudomonas aeruginosa; conditions: 10:90 + 2% arabinose
Excerpt: as §1, §2
Checkerboards (8 rows by 8 columns) were conducted as previously described in a 96-well plate (Nunc) ([13], [14]). TS at 75× the final concentration dissolved in DMSO was added in columns from bottom to top in increasing concentrations. […] The next day, the OD600 was determined with a plate reader (Thermo Scientific) and normalized to percent of growth of the vehicle control (DMSO) after subtracting the OD600 from blank media.

[3] = molecular target: T1, FpvB R648C (Pseudomonas aeruginosa, UniProt A0A0H2ZFZ5, R648C); test: Whole-cell fluorescence quenching, FpvB R648C in ΔfpvA ΔfpvB; format: binding
T1 sequence (A0A0H2ZFZ5 23-802 R648C): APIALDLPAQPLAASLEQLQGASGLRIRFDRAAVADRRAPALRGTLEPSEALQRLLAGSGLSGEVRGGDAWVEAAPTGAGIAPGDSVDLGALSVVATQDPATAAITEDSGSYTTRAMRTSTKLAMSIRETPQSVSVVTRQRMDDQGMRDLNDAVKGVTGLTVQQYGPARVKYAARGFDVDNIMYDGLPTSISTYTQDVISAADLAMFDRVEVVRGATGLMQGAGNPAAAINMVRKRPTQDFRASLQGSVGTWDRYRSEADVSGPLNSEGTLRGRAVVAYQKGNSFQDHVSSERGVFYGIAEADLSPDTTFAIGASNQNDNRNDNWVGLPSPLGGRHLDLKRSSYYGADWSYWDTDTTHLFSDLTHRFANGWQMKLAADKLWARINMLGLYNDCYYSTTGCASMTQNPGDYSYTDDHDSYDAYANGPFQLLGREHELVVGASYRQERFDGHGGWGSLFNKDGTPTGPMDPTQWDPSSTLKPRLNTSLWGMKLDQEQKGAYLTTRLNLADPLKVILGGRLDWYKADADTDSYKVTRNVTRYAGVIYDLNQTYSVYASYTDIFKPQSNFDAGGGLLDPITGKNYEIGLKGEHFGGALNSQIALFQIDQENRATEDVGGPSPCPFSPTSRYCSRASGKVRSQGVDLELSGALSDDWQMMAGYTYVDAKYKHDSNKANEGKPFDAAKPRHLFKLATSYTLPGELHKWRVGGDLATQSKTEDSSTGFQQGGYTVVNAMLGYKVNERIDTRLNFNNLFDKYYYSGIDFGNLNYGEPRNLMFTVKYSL
Excerpt: To determine the affinity of the siderophores for FpvA and FpvB, we adapted the method from Chakravorty et al. to generate a whole-cell sensor where fluorescence quenching serves as an indicator of ligand interaction ([31]). Siderophore binding triggers conformational changes at the extracellular loops of the TBDT (Fig. 3A). Cys substitutions were introduced at the loops and labeled with a fluorescent maleimide dye. When a ligand binds the transporter, the loops fold inward toward the lumen of the barrel, and changes in the chemical environment surrounding the fluorophore lead to quenching ([31], [32]). Fluorescence recovery occurs once the siderophore is taken up and the loop returns to its original conformation.
Cells were cultured overnight in LB with carbenicillin (200 μg/mL) at 37°C with shaking at 200 rpm. Cells were subcultured (1:200 dilution) in 10:90 plus 2% arabinose for 4 h without carbenicillin at 37°C with shaking at 200 rpm. […] Excess dye was quenched with 1 mM dithiothreitol (DTT) (Sigma) to stop the reaction. Cells were washed 3× with PBS. For fluorescence recovery assays, cells were incubated with 1× PBS plus 0.4% glucose at 37°C with shaking at 200 rpm. Glucose was prepared as a 20% stock (wt/vol) in 1× PBS and filter sterilized. Cells were spun down and washed 3× with 1× PBS and resuspended in 1× PBS for quenching assays and 1× PBS plus 0.4% glucose for fluorescence recovery assays.
For fluorescence quenching and recovery assays, cells were diluted to an OD600 of 0.1 for both types of assays, and 148 μL was added into wells of a 96-well black plate (Corning). Fluorescence was recorded for 5 min at 1-min intervals at 37°C (BioTek Neo; excitation, 494 nm; emission, 520 nm). After 5 min, 2 μL of each serial dilution for ferrioxamine-Fe^3+, ferrichrome-Fe^3+, and pyoverdine-Fe^3+ or DMSO for vehicle controls was added to each well. Fluorescence was recorded immediately for quenching assays and for 1 h at 1-min intervals for fluorescence recovery assays. Background fluorescence was subtracted from all fluorescence readings and 1-F/F0 was used to calculate the degree of quenching, where F0 is the initial fluorescence. Kd was calculated using GraphPad Prism using a one-site specific binding model or a two-site model. For fluorescence recovery assays, background was subtracted from all fluorescence readings and F/F0 expressed as a percent of control was plotted versus time.

SMILES | effect of siderophore on TS susceptibility [1] | effect of siderophore on TS susceptibility [2] | Kd for FpvB relative to ferrichrome ([3]; greater than ferrichrome) | Kd for FpvB relative to ferrioxamine B ([3]; greater than ferrioxamine B)
CC(=O)N(O)CCCCCNC(=O)CCC(=O)N(O)CCCCCNC(=O)CCC(=O)N(O)CCCCCN [ferrioxamine B] | None of those siderophores reduced TS susceptibility | antagonized TS susceptibility | – | –
NCCCCC(NC(=O)C(CO)NC(=O)[C@@H]1CCN=C2C(NC(=O)CCC(=O)O)=Cc3cc(O)c(O)cc3N21)C(=O)NCC(=O)NC(CCCN(O)C=O)C(=O)NC1CCCCNC(=O)C(CO)NC(=O)C(CCCN(O)C=O)NC1=O (stereo partly shown) [pyoverdine] (Suc-[X1][ξS][ξK]G[ξOrn(N(OH)CHO)][ξK][ξOrn(N(OH)CHO)][ξS]; lactam 6-C) | – | – | 200 fold | 20 fold

Reference: paper PMC9973354 (mBio, 2022)
